Assay results taken from article PMC12385234, “In Vitro Inhibitory Effects and Molecular Mechanism of Four Theaflavins on Isozymes of CYP450 and UGTs” (Foods, 2025).
Where two headings read alike, the source gives them in different places.

What was measured:
[1] = tested on: UGT1A1; conditions: cited from earlier work
[2] = molecular target: T1, UGT2B15 (Homo sapiens, UniProt P54855); experiment: Inhibition of UGT2B15-catalyzed 4-trifluoromethyl-7-hydroxycoumarin glucuronidation, human recombinant UGT
T1 sequence (P54855 24-530): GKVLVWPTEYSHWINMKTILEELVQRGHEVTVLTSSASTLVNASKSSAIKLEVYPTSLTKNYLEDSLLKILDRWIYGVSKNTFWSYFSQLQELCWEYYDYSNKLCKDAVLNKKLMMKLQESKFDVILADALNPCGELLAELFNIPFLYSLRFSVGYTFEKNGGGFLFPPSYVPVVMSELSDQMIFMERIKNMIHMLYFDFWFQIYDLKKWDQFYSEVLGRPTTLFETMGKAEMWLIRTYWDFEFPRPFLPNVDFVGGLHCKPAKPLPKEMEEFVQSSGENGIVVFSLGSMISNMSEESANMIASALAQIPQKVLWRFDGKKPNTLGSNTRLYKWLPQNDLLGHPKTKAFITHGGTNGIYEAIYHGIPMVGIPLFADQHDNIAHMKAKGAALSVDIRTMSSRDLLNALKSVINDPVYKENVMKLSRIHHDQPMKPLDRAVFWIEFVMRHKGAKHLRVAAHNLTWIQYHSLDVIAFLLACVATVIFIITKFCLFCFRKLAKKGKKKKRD
Method: (§1) These enzymes were then incubated with each compound (Table 1). Subsequently, the corresponding substrates for each UGT isoenzyme were added. The inhibitory effects of the respective products were evaluated by measuring their generation. […] Each incubation mixture was prepared in triplicate, containing 0.25 mg/mL recombinant enzyme, 5 mM UDPGA, and 10 mM propylthiouracil, among other conditions.

[3] = molecular target: CYP2C19 (Homo sapiens, UniProt P33261); experiment: Inhibition of CYP2C19 (S-mephenytoin) in pooled human liver microsomes
Method: (§2) The final reaction volume was 150 µL, and the reaction was carried out in a 96-well deep-well cell plate made of polypropylene. The reaction was conducted at a temperature of 37 °C. To ensure that the reaction time was within the linear range of the metabolic rate and to avoid data distortion caused by substrate depletion or product feedback inhibition, the reaction time for each substrate varied as follows: the incubation time for detecting CYP3A4 enzyme activity was 5 min; the incubation time for detecting CYP2B6, CYP2C8, CYP2C9, and CYP2D6 enzyme activities was 10 min each; the incubation time for detecting CYP1A2 and CYP2C19 enzyme activities was 30 min each.
(§3) The AB SCIEX 4000/5000 HPLC-MS/MS system, integrated with the HTS PAL autosampler (CTC Analytics AG, Basel, Switzerland) and Shimadzu LC 20 series HPLC (Shimadzu Corporation, Kyoto, Japan), was used for analysis. […]
(§4) In accordance with the DDI guidelines from the NMPA and the US FDA, the inhibition of CYP1A2, 2B6, 2C8, 2C9, 2C19, 2D6, and 3A4 activity by the test article was assessed. The inhibitory effect was determined by measuring the reduction in metabolite formation of respective probe substrates, expressed as relative activity compared to the negative control (NC), using the following formula: Relative activity (% of NC) = (formation of metabolites in test or PC/formation in NC) × 100. […]

[4] = molecular target: CYP3A4 (Homo sapiens, UniProt P08684); experiment: Inhibition of CYP3A4 (testosterone, midazolam) in pooled human liver microsomes
Method: (§5) The virological tests for AIDS, hepatitis B, and hepatitis C of the donors were negative. The final reaction volume was 150 µL, and the reaction was carried out in a 96-well deep-well cell plate made of polypropylene. The reaction was conducted at a temperature of 37 °C. […]
(§6) The AB SCIEX 4000/5000 HPLC-MS/MS system, integrated with the HTS PAL autosampler (CTC Analytics AG, Basel, Switzerland) and Shimadzu LC 20 series HPLC (Shimadzu Corporation, Kyoto, Japan), was used for analysis. […] Quantification was achieved by calculating the area under the curve (AUC) for each MRM transition. […]
(§7) In accordance with the DDI guidelines from the NMPA and the US FDA, the inhibition of CYP1A2, 2B6, 2C8, 2C9, 2C19, 2D6, and 3A4 activity by the test article was assessed. The inhibitory effect was determined by measuring the reduction in metabolite formation of respective probe substrates, expressed as relative activity compared to the negative control (NC), using the following formula: Relative activity (% of NC) = (formation of metabolites in test or PC/formation in NC) × 100. […] Data processing: When the calculated value is less than 100, three significant digits are retained. When the calculated value is greater than or equal to 100, only the integer part is retained.

[5] = molecular target: T2, UGT1A3 (Homo sapiens, UniProt P35503); experiment: Inhibition of UGT1A3-mediated beta-estradiol glucuronidation, human recombinant UGT
T2 sequence (P35503 29-534): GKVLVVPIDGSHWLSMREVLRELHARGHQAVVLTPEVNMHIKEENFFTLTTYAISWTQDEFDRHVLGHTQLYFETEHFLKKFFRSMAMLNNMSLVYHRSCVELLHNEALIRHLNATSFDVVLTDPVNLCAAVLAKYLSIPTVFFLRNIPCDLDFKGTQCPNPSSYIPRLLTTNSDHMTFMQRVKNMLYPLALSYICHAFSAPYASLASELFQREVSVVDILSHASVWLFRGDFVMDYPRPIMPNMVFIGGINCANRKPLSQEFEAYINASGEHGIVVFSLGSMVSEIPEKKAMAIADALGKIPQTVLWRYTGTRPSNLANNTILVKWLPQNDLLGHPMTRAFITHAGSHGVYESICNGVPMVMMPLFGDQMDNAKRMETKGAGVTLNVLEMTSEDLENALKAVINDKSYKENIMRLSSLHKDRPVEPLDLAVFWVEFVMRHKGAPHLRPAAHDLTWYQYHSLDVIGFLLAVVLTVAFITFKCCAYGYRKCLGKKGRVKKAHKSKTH
Method: as §1

[6] = molecular target: T3, UGT1A4 (Homo sapiens, UniProt P22310); experiment: Inhibition of UGT1A4-catalyzed trifluoperazine glucuronidation, human recombinant UGT
T3 sequence (P22310 29-534): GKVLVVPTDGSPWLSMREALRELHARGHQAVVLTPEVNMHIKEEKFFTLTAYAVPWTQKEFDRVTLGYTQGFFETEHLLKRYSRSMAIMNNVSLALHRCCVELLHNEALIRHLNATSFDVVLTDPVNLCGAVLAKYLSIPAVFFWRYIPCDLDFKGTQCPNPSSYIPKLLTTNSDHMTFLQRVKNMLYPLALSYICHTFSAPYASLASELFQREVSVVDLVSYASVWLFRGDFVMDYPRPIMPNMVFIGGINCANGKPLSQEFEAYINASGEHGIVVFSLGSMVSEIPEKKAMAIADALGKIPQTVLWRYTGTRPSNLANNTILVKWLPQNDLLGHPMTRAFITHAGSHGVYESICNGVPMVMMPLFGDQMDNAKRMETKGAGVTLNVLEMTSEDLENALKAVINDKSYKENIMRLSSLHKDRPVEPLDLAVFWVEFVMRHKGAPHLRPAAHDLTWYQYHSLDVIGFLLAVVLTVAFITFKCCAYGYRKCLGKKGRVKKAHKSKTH
Method: as §1

[7] = molecular target: T4, UGT1A1 (Homo sapiens, UniProt P22309); experiment: Inhibition of UGT1A1-catalyzed beta-estradiol glucuronidation, human recombinant UGT
T4 sequence (P22309 26-533): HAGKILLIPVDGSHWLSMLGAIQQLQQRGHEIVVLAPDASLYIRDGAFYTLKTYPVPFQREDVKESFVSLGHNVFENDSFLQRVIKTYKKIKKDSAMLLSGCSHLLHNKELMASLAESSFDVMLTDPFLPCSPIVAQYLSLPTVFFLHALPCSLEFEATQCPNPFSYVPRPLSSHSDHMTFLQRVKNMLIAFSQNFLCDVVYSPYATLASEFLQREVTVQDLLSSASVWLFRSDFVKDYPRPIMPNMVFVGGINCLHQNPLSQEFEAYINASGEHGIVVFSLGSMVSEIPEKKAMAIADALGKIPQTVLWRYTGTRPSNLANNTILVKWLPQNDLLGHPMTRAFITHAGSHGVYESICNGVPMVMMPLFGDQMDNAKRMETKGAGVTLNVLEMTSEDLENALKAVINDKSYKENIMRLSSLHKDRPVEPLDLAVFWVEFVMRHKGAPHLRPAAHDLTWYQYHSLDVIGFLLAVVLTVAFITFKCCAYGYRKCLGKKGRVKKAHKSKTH
Method: as §1

[8] = molecular target: T5, CYP1A2 (Homo sapiens, UniProt P05177); experiment: Inhibition of CYP1A2-catalyzed phenacetin metabolism in pooled human liver microsomes
T5 sequence (P05177 1-516): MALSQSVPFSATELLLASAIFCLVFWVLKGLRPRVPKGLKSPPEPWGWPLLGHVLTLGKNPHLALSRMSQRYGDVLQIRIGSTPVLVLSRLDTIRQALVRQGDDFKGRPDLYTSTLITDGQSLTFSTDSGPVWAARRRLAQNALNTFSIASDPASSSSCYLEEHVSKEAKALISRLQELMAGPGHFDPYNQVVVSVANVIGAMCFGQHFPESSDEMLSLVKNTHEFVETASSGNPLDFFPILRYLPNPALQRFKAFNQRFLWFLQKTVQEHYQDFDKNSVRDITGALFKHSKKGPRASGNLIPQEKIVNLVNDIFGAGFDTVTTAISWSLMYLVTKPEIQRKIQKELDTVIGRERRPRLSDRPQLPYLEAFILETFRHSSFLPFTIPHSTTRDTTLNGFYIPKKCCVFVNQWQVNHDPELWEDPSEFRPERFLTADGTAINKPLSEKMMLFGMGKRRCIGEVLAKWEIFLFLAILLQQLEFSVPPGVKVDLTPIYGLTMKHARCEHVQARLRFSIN
Method: as §5, §6, §7

[9] = molecular target: CYP2C9 (Homo sapiens, UniProt P11712); experiment: Inhibition of CYP2C9 (diclofenac) in pooled human liver microsomes
Method: as §5, §6, §7

[10] = molecular target: T6, CYP2B6 (Homo sapiens, UniProt P20813); experiment: Inhibition of CYP2B6 (bupropion) in pooled human liver microsomes
T6 sequence (P20813 1-491): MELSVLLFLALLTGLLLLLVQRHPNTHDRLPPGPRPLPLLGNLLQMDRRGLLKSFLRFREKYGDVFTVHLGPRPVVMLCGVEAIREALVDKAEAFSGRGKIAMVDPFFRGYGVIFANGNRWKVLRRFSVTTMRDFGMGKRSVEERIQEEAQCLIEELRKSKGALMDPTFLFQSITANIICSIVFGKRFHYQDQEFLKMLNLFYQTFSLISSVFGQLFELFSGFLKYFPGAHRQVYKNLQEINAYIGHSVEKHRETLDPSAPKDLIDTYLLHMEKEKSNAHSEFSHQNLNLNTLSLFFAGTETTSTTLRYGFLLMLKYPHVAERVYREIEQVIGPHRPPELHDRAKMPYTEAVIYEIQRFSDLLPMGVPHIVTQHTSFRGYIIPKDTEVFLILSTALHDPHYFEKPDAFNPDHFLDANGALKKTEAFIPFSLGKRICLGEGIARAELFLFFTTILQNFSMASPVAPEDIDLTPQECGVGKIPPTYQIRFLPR
Method: as §5, §6, §7

[11] = molecular target: CYP2D6 (Homo sapiens, UniProt P10635); experiment: Inhibition of CYP2D6 (dextromethorphan) in pooled human liver microsomes
Method: as §2, §3, §4

[12] = molecular target: T7, CYP2C8 (Homo sapiens, UniProt P10632); experiment: Inhibition of CYP2C8-mediated amodiaquine metabolism in pooled human liver microsomes
T7 sequence (P10632 1-490): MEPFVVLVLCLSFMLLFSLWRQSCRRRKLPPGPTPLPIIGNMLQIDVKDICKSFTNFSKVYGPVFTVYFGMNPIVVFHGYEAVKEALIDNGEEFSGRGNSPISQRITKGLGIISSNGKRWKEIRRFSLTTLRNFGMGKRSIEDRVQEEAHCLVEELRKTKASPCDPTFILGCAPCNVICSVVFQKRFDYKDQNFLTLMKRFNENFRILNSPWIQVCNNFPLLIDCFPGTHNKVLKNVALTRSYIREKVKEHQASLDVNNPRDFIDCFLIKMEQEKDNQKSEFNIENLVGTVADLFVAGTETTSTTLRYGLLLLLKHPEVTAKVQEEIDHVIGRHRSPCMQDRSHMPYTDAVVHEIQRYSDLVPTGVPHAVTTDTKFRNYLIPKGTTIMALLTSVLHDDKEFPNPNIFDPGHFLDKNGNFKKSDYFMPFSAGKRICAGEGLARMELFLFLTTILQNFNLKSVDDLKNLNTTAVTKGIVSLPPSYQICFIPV
Method: as §5, §6, §7

[13] = tested on: UGT1A9; conditions: cited from earlier work

Sequence of CYP3A4 (P08684 whole entry): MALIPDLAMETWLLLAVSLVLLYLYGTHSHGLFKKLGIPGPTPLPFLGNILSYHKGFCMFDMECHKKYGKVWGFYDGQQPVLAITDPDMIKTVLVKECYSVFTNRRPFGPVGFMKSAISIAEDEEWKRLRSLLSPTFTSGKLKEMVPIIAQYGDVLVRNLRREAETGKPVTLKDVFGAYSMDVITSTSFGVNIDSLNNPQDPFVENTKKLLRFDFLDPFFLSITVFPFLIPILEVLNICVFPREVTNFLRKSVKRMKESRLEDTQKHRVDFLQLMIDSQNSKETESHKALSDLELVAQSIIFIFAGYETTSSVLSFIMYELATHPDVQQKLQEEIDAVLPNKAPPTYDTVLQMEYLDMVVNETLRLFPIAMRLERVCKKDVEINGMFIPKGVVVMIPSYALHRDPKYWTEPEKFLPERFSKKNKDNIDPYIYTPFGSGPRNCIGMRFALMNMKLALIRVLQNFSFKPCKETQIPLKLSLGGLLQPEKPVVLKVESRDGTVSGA
Sequence of CYP2C9 (P11712 whole entry): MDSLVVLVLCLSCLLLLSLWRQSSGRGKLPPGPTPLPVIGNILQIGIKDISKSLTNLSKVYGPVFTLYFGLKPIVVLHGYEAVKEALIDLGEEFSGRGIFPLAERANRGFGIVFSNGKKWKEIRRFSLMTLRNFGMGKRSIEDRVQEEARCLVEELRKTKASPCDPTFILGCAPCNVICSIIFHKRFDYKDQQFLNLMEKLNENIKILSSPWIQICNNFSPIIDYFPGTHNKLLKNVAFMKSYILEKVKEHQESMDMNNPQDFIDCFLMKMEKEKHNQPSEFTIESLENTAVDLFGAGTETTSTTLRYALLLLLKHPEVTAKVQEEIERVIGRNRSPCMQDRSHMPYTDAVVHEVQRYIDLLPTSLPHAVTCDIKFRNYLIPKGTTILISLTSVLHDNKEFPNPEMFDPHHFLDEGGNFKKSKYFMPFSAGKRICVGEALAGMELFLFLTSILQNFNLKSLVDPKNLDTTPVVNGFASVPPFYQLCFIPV
Sequence of CYP2C19 (P33261 whole entry): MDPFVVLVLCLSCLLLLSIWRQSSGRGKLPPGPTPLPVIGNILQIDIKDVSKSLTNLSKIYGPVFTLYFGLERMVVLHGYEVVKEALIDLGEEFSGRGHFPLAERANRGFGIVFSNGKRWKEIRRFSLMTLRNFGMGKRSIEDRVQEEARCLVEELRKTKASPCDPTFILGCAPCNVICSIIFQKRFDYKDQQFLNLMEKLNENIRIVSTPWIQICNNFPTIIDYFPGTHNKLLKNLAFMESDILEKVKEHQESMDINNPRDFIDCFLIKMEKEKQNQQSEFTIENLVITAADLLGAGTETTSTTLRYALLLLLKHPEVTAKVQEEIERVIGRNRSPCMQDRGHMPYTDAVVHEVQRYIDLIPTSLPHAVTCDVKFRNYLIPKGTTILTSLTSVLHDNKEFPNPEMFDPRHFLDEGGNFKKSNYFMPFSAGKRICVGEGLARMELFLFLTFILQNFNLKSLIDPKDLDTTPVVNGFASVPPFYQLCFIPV
Sequence of CYP2D6 (P10635 whole entry): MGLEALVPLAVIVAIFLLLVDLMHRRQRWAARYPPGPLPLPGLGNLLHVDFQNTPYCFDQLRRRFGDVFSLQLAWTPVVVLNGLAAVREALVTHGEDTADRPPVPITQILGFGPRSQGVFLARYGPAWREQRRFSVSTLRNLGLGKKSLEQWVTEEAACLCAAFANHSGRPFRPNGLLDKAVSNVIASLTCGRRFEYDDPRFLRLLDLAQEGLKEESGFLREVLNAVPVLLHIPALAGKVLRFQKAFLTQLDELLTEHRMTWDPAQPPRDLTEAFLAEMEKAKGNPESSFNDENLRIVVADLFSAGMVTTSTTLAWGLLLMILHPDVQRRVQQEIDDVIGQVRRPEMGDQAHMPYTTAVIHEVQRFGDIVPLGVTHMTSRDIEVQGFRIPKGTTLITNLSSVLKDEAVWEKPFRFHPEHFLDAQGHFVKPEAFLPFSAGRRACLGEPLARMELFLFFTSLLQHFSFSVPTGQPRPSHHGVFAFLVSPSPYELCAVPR

O=c1c(O)c(-c2ccc(O)c(O)c2)oc2cc(O)cc(O)c12 [quercetin]
strong inhibition: Inhibition of UGT1A1 (in words) [1]

O=c1c(O)cc([C@H]2Oc3cc(O)cc(O)c3C[C@H]2O)cc2c([C@H]3Oc4cc(O)cc(O)c4C[C@H]3O)cc(O)c(O)c12 [Theaflavin, theaflavin]
> 20 µM: IC50 [2] | IC50 [3] | IC50 [4] | IC50 ([4]; read-out: IC50, CYP3A4-M, pooled HLMs, probe midazolam) | IC50 [5] | IC50 [6] | IC50 [8] | IC50 [9] | IC50 [10] | IC50 [11] | IC50 [12]
3.89 µM: IC50 [7]

(-)-epigallocatechin-3-gallate [EGCG]
moderately inhibit: Inhibition of UGT1A9 (in words) [13] | Inhibition of UGT1A1 (in words) [1]
